In general, Kd refers to a measure of binding affinity in units of concentration. Low values mean a tighter complex, high ones a looser complex.

Experimental findings from PMC6582342 (Nucleic Acids Research, 2019) are described below.

This experiment addresses T1, TcEIF4E5 (Trypanosoma cruzi, UniProt A0A2V2VRR6).
T1 sequence (A0A2V2VRR6 1-200): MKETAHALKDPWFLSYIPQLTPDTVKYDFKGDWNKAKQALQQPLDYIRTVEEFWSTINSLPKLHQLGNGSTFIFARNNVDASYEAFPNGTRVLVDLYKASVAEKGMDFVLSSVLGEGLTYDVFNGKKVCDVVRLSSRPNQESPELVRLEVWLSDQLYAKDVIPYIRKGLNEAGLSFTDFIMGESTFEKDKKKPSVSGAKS
Briefly: X-ray crystal structure. The class given is binding.

Consider `C[n+]1cn([C@@H]2O[C@H](COP(=O)(O)OP(=O)(O)OP(=O)(O)O)[C@@H](O)[C@H]2O)c2nc(N)[nH]c(=O)c21` [m7GTP], for which the Kd was 21 ± 7 µM.
